The values below come from patent US9125414B2, “Pyridine derivatives compounds for controlling invertebrate pests” (BASF SE, priority 2009, dated 2015).

Molecules are shown by their SMILES. Some results are limits rather than exact numbers.

Type in all cases: in vivo
Assay [1] concerns Green Peach Aphid (Myzus persicae, mixed life stages). Description: Green peach aphid, method a (leaf dip, pepper plants). The conditions noted are these: foliar, 120 h, leaves dipped, after 5 days, read-out: mortality in comparison with untreated controls. The text has this: II.2 Green Peach Aphid (Myzus persicae, Mixed Life Stages)
The active compounds were formulated in 50:50 (vol:vol) acetone:water and 100 ppm Kinetica™ (from Helena Chemical Co.) surfactant.
Pepper plants in the 2nd leaf-pair stage (variety ‘California Wonder’) were infested with approximately 40 laboratory-reared aphids by placing infested leaf sections on top of the test plants. The leaf sections were removed after 24 hr. The leaves of the intact plants were dipped into gradient solutions of the test compound and allowed to dry. Test plants were maintained under fluorescent light (24 hour photoperiod) at about 25° C. and 20-40% relative humidity. Aphid mortality on the treated plants, relative to mortality on check plants, was determined after 5 days.

Assay [2] deals with Cowpea Aphid (Aphis craccivora). The assay can be described thus: Cowpea aphid, sprayed potted cowpea plants. The conditions noted are these: population reduction assessed after 24, 72 and 120 hours, read-out: mortality in comparison with untreated controls. The procedure: II.3 Cowpea Aphid (Aphis craccivora)
The active compounds were formulated in 50:50 (vol:vol) acetone:water. The test solution was prepared at the day of use.
Potted cowpea plants colonized with 100-150 aphids of various stages were sprayed after the pest population had been recorded. Population reduction was assessed after 24, 72, and 120 hours.

Assay [3] deals with Vetch Aphid (Megoura viciae). The assay can be described thus: Vetch aphid, bean leaf disks in microtiterplates. Conditions: foliar, 144 h, test solution 2500 mg/L, leaf disks sprayed, 6 days. How it is done:
II.4 Vetch Aphid (Megoura viciae)
The active compounds were formulated in 1:3 (vol:vol) DMSO:water with different concentrations of formulated compounds.
Bean leaf disks were placed into microtiterplates filled with […] and 2.5 ppm OPUS™ (from BASF SE, conazole). The leaf disks were sprayed with 2.5 μl of the test solution and 5 to 8 adult aphids were placed into the microtiterplates which were then closed and kept at 23±1° C. and 50±5% relative humidity under fluorescent light for 6 days. Mortality was assessed on the basis of vital, reproduced aphids. Aphid mortality and fecundity was then visually assessed.

The test system of assay [4] is Cotton Aphid (Aphis gossypii, mixed life stages). Description: Cotton aphid, method a (cotyledon dip). The conditions noted are these: 120 h, cotyledons dipped, counts after 5 days, read-out: mortality in comparison with untreated controls. From the text: II.1 Cotton Aphid (Aphis gossypii, Mixed Life Stages)
The active compounds were formulated in 50:50 (vol:vol) acetone: water and 100 ppm Kinetica™ (from Helena Chemical Co.) surfactant.
Cotton plants at the cotyledon stage (one plant per pot) were infested by placing a heavily infested leaf from the main colony on top of each cotyledon. The aphids were allowed to transfer to the host plant overnight, and the leaf used to transfer the aphids was removed. The cotyledons were dipped in the test solution and allowed to dry. After 5 days, mortality counts were made.

In assay [5] the test system is Green Peach Aphid (Myzus persicae). The assay can be described thus: Green peach aphid through systemic means, artificial diet under membrane. Conditions: 72 h, pipetted into aphid diet, 3 days, read-out: mortality in comparison with untreated controls. From the text: II.6 Activity Against Green Peach Aphid (Myzus persicae)
For evaluating control of green peach aphid (Myzus persicae) through systemic means the test unit consisted of 96-well-microtiter plates containing liquid artificial diet under an artificial membrane.
The compounds were formulated using a solution containing 75% v/v water and 25% v/v DMSO. Different concentrations of formulated compounds were pipetted into the aphid diet, using a custom built pipetter, at two replications. After application, 5 to 8 adult aphids were placed on the artificial membrane inside the microtiter plate wells. The aphids were then allowed to suck on the treated aphid diet and incubated at about 23+1° C. and about 50+5% relative humidity for 3 days. Aphid mortality and fecundity was then visually assessed.

For `O=C(Nc1cccnc1)c1conc1C1CC1` [Example 15, 3-Cyclopropyl-isoxazole-4-carboxylic acid pyridin-3-ylamide], the mortality at 300 ppm in assay [1], in assay [2] and in assay [4] was not below 90% throughout. Besides, in assay [3], the mortality (as a rule, the share of the test organisms that died) at 2500 µg/mL was not below 90%. Besides, the mortality at 2500 ppm in assay [5] turned out to be 100%.
